Values quoted from earlier work in paper PMC6234229, “The role of loops B and C in determining the potentiation of GABAA receptors by midazolam” (Pharmacology Research & Perspectives, 2018).

How the values were obtained:
[1] = tested on: α6‐containing GABAA receptors; details: cited from earlier work
α3β1γ2 receptors = tested on: α3β1γ2 receptors; parameters: method as in PMID 1646944, PMID 8381510; details: cited from earlier work

Row | Structure (SMILES) | potentiation of α6‐ vs α3‐containing GABAA receptors [1] | potentiation of α3β1γ2 vs α1β1γ2 receptors (α3β1γ2 receptors)
1 | CC#CCOC(=O)c1c(C)nc2sc3c(c2c1N)CCC(O)C3 (stereo not drawn) [SB‐205384] | potentiate α6‐containing GABAA receptors even more strongly than α3 | –
2 | CN1C(=O)CN=C(c2ccccc2)c2cc(Cl)ccc21 [diazepam] | – | potentiated α3β1γ2 receptors more than α1β1γ2 receptors
3 | CN1C(=O)CN=C(c2ccccc2F)c2cc([N+](=O)[O-])ccc21 [flunitrazepam] | – | potentiated α3β1γ2 receptors more than α1β1γ2 receptors
